Laboratory results: the supplement of paper PMC13380429

Tests used:
[1] = tested on: A549-ACE2 infected with SARS-CoV-2; test: cell count relative to DMSO; higher = less toxic; settings: 24 h
Caco-2 [2] = test: cell viability relative to DMSO; higher = less toxic; settings: 72 h
Calu-3 [3] = test: as above; settings: 72 h
HepG2 [4] = test: as above; settings: 72 h
U2OS [5] = test: as above; settings: 72 h
Vero E6 [6] = test: as above; settings: 72 h
[7] = tested on: A549-ACE2 infected with SARS-CoV-2; test: SARS-CoV-2 infection rate relative to DMSO; higher = more infection; settings: 24 h
A549-ACE2 [8] = test: phospholipidosis EC50; higher = less potent phospholipidosis inducer
A549-ACE2 [9] = test: drug-induced phospholipidosis relative to tamoxifen; higher = more phospholipidosis
[10] = tested on: A549-ACE2 infected with SARS-CoV-2; test: morphology score (similarity to uninfected cells); higher = more like uninfected cells; settings: 24 h
Caco-2 [11] = test: relative viability EC50 (midpoint between 100% and the lowest measured viability); higher = less toxic; settings: 72 h
Calu-3 [12] = test: as above; settings: 72 h
U2OS [13] = test: as above; settings: 72 h
Vero E6 [14] = test: as above; settings: 72 h
Caco-2 [15] = test: drug sensitivity score (DSS) for viability; higher = more toxic; extreme values may be limits of the assay; settings: 72 h
Calu-3 [16] = test: as above; settings: 72 h
HepG2 [17] = test: as above; settings: 72 h
U2OS [18] = test: as above; settings: 72 h
Vero E6 [19] = test: as above; settings: 72 h

CN1CCN(CCCN2c3ccccc3Sc3ccc(Cl)cc32)CC1 [prochlorperazine]
Settings | SARS-CoV-2 infection rate [%] | cell count [%] | cell viability [%] | morphology score | phospholipidosis EC50 [µM]
A549-ACE2 [8], 24 h | – | – | – | – | 3.19
A549-ACE2 [8], 48 h | – | – | – | – | 4.05
A549-ACE2 [8], 72 h | – | – | – | – | 12.5
Caco-2 [2], 1 nM | – | – | 100 | – | –
Caco-2 [2], 10 nM | – | – | 84.1 | – | –
Caco-2 [2], 100 nM | – | – | 96.9 | – | –
Caco-2 [2], 1000 nM | – | – | 99.8 | – | –
Caco-2 [2], 10000 nM | – | – | 76.6 | – | –
Calu-3 [3], 1 nM | – | – | 106 | – | –
Calu-3 [3], 10 nM | – | – | 103 | – | –
Calu-3 [3], 100 nM | – | – | 105 | – | –
Calu-3 [3], 1000 nM | – | – | 105 | – | –
Calu-3 [3], 10000 nM | – | – | 93.2 | – | –
HepG2 [4], 1 nM | – | – | 107 | – | –
HepG2 [4], 10 nM | – | – | 102 | – | –
HepG2 [4], 100 nM | – | – | 97 | – | –
HepG2 [4], 1000 nM | – | – | 106 | – | –
HepG2 [4], 10000 nM | – | – | 55.5 | – | –
U2OS [5], 1 nM | – | – | 103 | – | –
U2OS [5], 10 nM | – | – | 94.5 | – | –
U2OS [5], 100 nM | – | – | 98.6 | – | –
U2OS [5], 1000 nM | – | – | 94 | – | –
U2OS [5], 10000 nM | – | – | 91.4 | – | –
Vero E6 [6], 1 nM | – | – | 96 | – | –
Vero E6 [6], 10 nM | – | – | 92.5 | – | –
Vero E6 [6], 100 nM | – | – | 101 | – | –
Vero E6 [6], 1000 nM | – | – | 97.4 | – | –
Vero E6 [6], 10000 nM | – | – | 81 | – | –
[1], 0.3 µM | – | 100 | – | – | –
[1], 3 µM | – | 123 | – | – | –
[1], 10 µM | – | 117 | – | – | –
[1], 30 µM | – | 64 | – | – | –
[7], 0.3 µM | 95 | – | – | – | –
[7], 3 µM | 29 | – | – | – | –
[7], 10 µM | 12 | – | – | – | –
[7], 30 µM | 50 | – | – | – | –
[10], 0.3 µM | – | – | – | 0 | –
[10], 3 µM | – | – | – | 0.84 | –
[10], 10 µM | – | – | – | 0.79 | –
[10], 30 µM | – | – | – | 0.19 | –

drug-induced phospholipidosis [%], A549-ACE2 [9]
Settings | 0.3 µM | 0.833333 µM | 3.33333 µM | 6.66667 µM | 10 µM | 30 µM
24 h | 1.08 | 10.5 | 48.6 | 76.3 | 92.2 | 56.6
48 h | 0.82 | 7.81 | 45.8 | 83.3 | 94.4 | –
72 h | 3.57 | 9.54 | 35 | 75 | 104 | –

Settings | drug sensitivity score | relative viability EC50 [µM]
Caco-2 [11] | – | > 10
Caco-2 [15] | 0.9 | –
Calu-3 [12] | – | > 10
Calu-3 [16] | 0 | –
HepG2 [17] | 1.9 | –
U2OS [13] | – | > 10
U2OS [18] | 0 | –
Vero E6 [14] | – | > 10
Vero E6 [19] | 0.9 | –

COc1ccc2cc1Oc1ccc(cc1)C[C@H]1c3cc(c(OC)cc3CCN1C)Oc1c(OC)c(OC)cc3c1[C@H](C2)N(C)CC3 [tetrandrine]
Settings | SARS-CoV-2 infection rate [%] | cell count [%] | cell viability [%] | morphology score | phospholipidosis EC50 [µM]
A549-ACE2 [8], 24 h | – | – | – | – | 7
A549-ACE2 [8], 48 h | – | – | – | – | 10.2
A549-ACE2 [8], 72 h | – | – | – | – | 5.6
Caco-2 [2], 1 nM | – | – | 100 | – | –
Caco-2 [2], 10 nM | – | – | 97.9 | – | –
Caco-2 [2], 100 nM | – | – | 92.1 | – | –
Caco-2 [2], 1000 nM | – | – | 95.4 | – | –
Caco-2 [2], 10000 nM | – | – | 79.5 | – | –
Calu-3 [3], 1 nM | – | – | 88.3 | – | –
Calu-3 [3], 10 nM | – | – | 109 | – | –
Calu-3 [3], 100 nM | – | – | 91.3 | – | –
Calu-3 [3], 1000 nM | – | – | 99.9 | – | –
Calu-3 [3], 10000 nM | – | – | 29.1 | – | –
HepG2 [4], 1 nM | – | – | 104 | – | –
HepG2 [4], 10 nM | – | – | 102 | – | –
HepG2 [4], 100 nM | – | – | 97.7 | – | –
HepG2 [4], 1000 nM | – | – | 94.1 | – | –
HepG2 [4], 10000 nM | – | – | 71.5 | – | –
Vero E6 [6], 1 nM | – | – | 100 | – | –
Vero E6 [6], 10 nM | – | – | 94.2 | – | –
Vero E6 [6], 100 nM | – | – | 94.6 | – | –
Vero E6 [6], 1000 nM | – | – | 94.4 | – | –
Vero E6 [6], 10000 nM | – | – | 92.6 | – | –
[1], 0.3 µM | – | 106 | – | – | –
[1], 3 µM | – | 115 | – | – | –
[1], 10 µM | – | 119 | – | – | –
[1], 30 µM | – | 79 | – | – | –
[7], 0.3 µM | 92 | – | – | – | –
[7], 3 µM | 23 | – | – | – | –
[7], 10 µM | 21 | – | – | – | –
[7], 30 µM | 42 | – | – | – | –
[10], 0.3 µM | – | – | – | 0.37 | –
[10], 3 µM | – | – | – | 0.79 | –
[10], 10 µM | – | – | – | 0.07 | –
[10], 30 µM | – | – | – | -0.15 | –

drug-induced phospholipidosis [%], A549-ACE2 [9]
Settings | 0.3 µM | 0.833333 µM | 3.33333 µM | 6.66667 µM | 10 µM | 30 µM
24 h | 16.2 | 29.5 | 61.4 | 78 | 92.7 | 115
48 h | 16.2 | 22.2 | 51.1 | 78.8 | 101 | 145
72 h | 8.49 | 16.5 | 49.2 | 80.6 | 103 | 176

Settings | drug sensitivity score | relative viability EC50 [µM]
Caco-2 [11] | – | > 10
Caco-2 [15] | 0.7 | –
Calu-3 [12] | – | 3.15
Calu-3 [16] | 3.9 | –
HepG2 [17] | 2.1 | –
Vero E6 [14] | – | > 10
Vero E6 [19] | 0 | –
